{"source": "patent US20260125371A1", "about": "“METHOD FOR INHIBITING CLOSTRIDIOIDES DIFFICILE SPORE GERMINATION” (UNIVERSITY OF NOTRE DAME DU LAC, priority 2022, published 2026)", "key": {"[1]": {"test_system": "Lactobacillus gasseri HM-644", "test": "MIC against Lactobacillus gasseri (gut bacteria)", "type": "cell-based", "details": "HM644"}, "C. difficile ATCC 43255": {"test_system": "C. difficile ATCC 43255", "type": "cell-based, Clostridioides difficile"}}, "data": [{"compound": "O=[N+]([O-])c1cnc(-c2nc(-c3ccc(OC4CCCC4)cc3)no2)[nH]1", "note": "[Compound 57, 3-(4-(Cyclopentyloxy)phenyl)-5-(4-nitro-1H-imidazol-2-yl)-1,2,4-oxadiazole]", "values": [{"measurement": "MIC", "setting": "[1]", "value": "> 128", "unit": "µg/mL"}, {"measurement": "passages after which MIC increased 2-fold", "setting": "C. difficile ATCC 43255; 2-fold MIC increase", "value": 8, "unit": "passages"}, {"measurement": "passages after which MIC increased 4-fold", "setting": "C. difficile ATCC 43255; 4-fold MIC increase", "value": 14, "unit": "passages"}, {"measurement": "passages after which MIC increased 8-fold", "setting": "C. difficile ATCC 43255; 8-fold MIC increase", "value": 20, "unit": "passages"}, {"measurement": "increase in MIC on serial passage", "setting": "C. difficile ATCC 43255; whole serial passage experiment (30 passages)", "value": 8, "unit": "fold"}]}]}
